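Each compound was tested at five concentrations against cells in 96-well plates for 48 hours. TGI marks complete inhibition of growth.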
Key:
Test in all cases: DTP human tumour cell line panel, 48 h
ACHN renal = test system: ACHN renal
SR leukemia = test system: SR leukemia
SN12C renal = test system: SN12C renal
NCI-H226 lung = test system: NCI-H226 lung
SK-OV-3 ovarian = test system: SK-OV-3 ovarian
HCC-2998 colon = test system: HCC-2998 colon
DMS 273 small cell lung = test system: DMS 273 small cell lung
SF-295 CNS = test system: SF-295 CNS
TK-10 renal = test system: TK-10 renal
NCI-H460 lung = test system: NCI-H460 lung
UACC-62 melanoma = test system: UACC-62 melanoma
EKVX NSCLC = test system: EKVX NSCLC
SF-539 CNS = test system: SF-539 CNS
M19-MEL melanoma = test system: M19-MEL melanoma
MALME-3M melanoma = test system: MALME-3M melanoma
SNB-19 CNS = test system: SNB-19 CNS
CCRF-CEM leukemia = test system: CCRF-CEM leukemia
SW-620 colon = test system: SW-620 colon
A549 NSCLC = test system: A549 NSCLC
RXF 393 renal = test system: RXF 393 renal
HOP-62 NSCLC = test system: HOP-62 NSCLC
COLO 205 colon = test system: COLO 205 colon
SNB-75 CNS = test system: SNB-75 CNS
K-562 leukemia = test system: K-562 leukemia
KM20L2 colon = test system: KM20L2 colon
HT29 colon = test system: HT29 colon
SNB-78 CNS = test system: SNB-78 CNS
OVCAR-8 ovarian = test system: OVCAR-8 ovarian
MOLT-4 leukemia = test system: MOLT-4 leukemia
DLD-1 colon = test system: DLD-1 colon
IGROV1 ovarian = test system: IGROV1 ovarian
HCT-116 colon = test system: HCT-116 colon
LXFL 529 NSCLC = test system: LXFL 529 NSCLC
SK-MEL-28 melanoma = test system: SK-MEL-28 melanoma
786-0 renal = test system: 786-0 renal
DMS 114 small cell lung = test system: DMS 114 small cell lung
LOX IMVI melanoma = test system: LOX IMVI melanoma
OVCAR-3 ovarian = test system: OVCAR-3 ovarian
UACC-257 melanoma = test system: UACC-257 melanoma
UO-31 renal = test system: UO-31 renal
KM12 colon = test system: KM12 colon
RPMI-8226 leukemia = test system: RPMI-8226 leukemia
NCI-H522 lung = test system: NCI-H522 lung
U251 CNS = test system: U251 CNS
M14 melanoma = test system: M14 melanoma
SF-268 CNS = test system: SF-268 CNS
HCT-15 colon = test system: HCT-15 colon
NCI-H23 lung = test system: NCI-H23 lung
OVCAR-4 ovarian = test system: OVCAR-4 ovarian
A498 renal = test system: A498 renal
HL-60(TB) leukemia = test system: HL-60(TB) leukemia
HOP-18 NSCLC = test system: HOP-18 NSCLC
SK-MEL-2 melanoma = test system: SK-MEL-2 melanoma
SK-MEL-5 melanoma = test system: SK-MEL-5 melanoma
OVCAR-5 ovarian = test system: OVCAR-5 ovarian

Work on `O=C1c2ccccc2C(=O)C2C3c4ccccc4C(c4ccccc43)C12` (stereo not given) yielded a TGI (ACHN renal) greater than 100000 nM, a TGI (SR leukemia) of 30.5 µM and a TGI (SN12C renal) of 61.5 µM. For the same compound, the TGI (NCI-H226 lung) was greater than 100 µM, the TGI (SK-OV-3 ovarian) was greater than 100 µM and the TGI (HCC-2998 colon) was 88.8 µM. For the same compound, the TGI (DMS 273 small cell lung) was 39.4 µM, the TGI (SF-295 CNS) was 31.5 µM and the TGI (TK-10 renal) was 63.3 µM. For the same compound, the TGI (NCI-H460 lung) was greater than 100 µM, the TGI (UACC-62 melanoma) was greater than 100000 nM and the TGI (EKVX NSCLC) was 68.5 µM. For the same compound, the TGI (SF-539 CNS) was 25.4 µM, the TGI (M19-MEL melanoma) was 40 µM and the TGI (MALME-3M melanoma) was 38.8 µM. For the same compound, the TGI (SNB-19 CNS) was greater than 100 µM, the TGI (CCRF-CEM leukemia) was 26 µM and the TGI (SW-620 colon) was greater than 100 µM. The TGI (A549 NSCLC) was greater than 100 µM, the TGI (RXF 393 renal) was 22.7 µM and the TGI (HOP-62 NSCLC) was greater than 100 µM. It also gave a TGI (COLO 205 colon) greater than 100 µM, a TGI (SNB-75 CNS) of 42.7 µM and a TGI (K-562 leukemia) of 32.2 µM. For the same compound, the TGI (KM20L2 colon) was greater than 100000 nM, the TGI (HT29 colon) was 79.4 µM and the TGI (SNB-78 CNS) was 51.3 µM. It also gave a TGI (OVCAR-8 ovarian) of 42.3 µM, a TGI (MOLT-4 leukemia) of 27.9 µM and a TGI (DLD-1 colon) greater than 100 µM. The TGI (IGROV1 ovarian) was 78.3 µM, the TGI (HCT-116 colon) was greater than 100 µM and the TGI (LXFL 529 NSCLC) was 37.2 µM. For the same compound, the TGI (SK-MEL-28 melanoma) was greater than 100 µM, the TGI (786-0 renal) was 18.9 µM and the TGI (DMS 114 small cell lung) was 42.7 µM. The TGI (LOX IMVI melanoma) was 28.9 µM, the TGI (OVCAR-3 ovarian) was 45.8 µM and the TGI (UACC-257 melanoma) was greater than 100 µM. For the same compound, the TGI (UO-31 renal) was 59.6 µM, the TGI (KM12 colon) was greater than 100 µM and the TGI (RPMI-8226 leukemia) was 25.7 µM. The TGI (NCI-H522 lung) was greater than 100 µM, the TGI (U251 CNS) was greater than 100 µM and the TGI (M14 melanoma) was greater than 100 µM. The TGI (SF-268 CNS) was 34.9 µM, the TGI (HCT-15 colon) was greater than 100000 nM and the TGI (NCI-H23 lung) was greater than 100 µM.

`CN(C)CC(C)(C)C(/C=C/c1ccccc1)=N\Nc1ccccc1` was tested, and the TGI (ACHN renal) was 1250 nM, the TGI (SN12C renal) was 17.6 µM and the TGI (SK-OV-3 ovarian) was 38.8 µM. For the same compound, the TGI (DMS 273 small cell lung) was 11.2 µM, the TGI (SF-295 CNS) was 0.907 µM and the TGI (TK-10 renal) was 3.48 µM. The TGI (NCI-H460 lung) was 17.8 µM, the TGI (UACC-62 melanoma) was 1070 nM and the TGI (OVCAR-4 ovarian) was 17.9 µM. It also gave a TGI (EKVX NSCLC) of 16.4 µM, a TGI (SF-539 CNS) of 0.897 µM and a TGI (M19-MEL melanoma) of 22.3 µM. For the same compound, the TGI (MALME-3M melanoma) was 26.6 µM, the TGI (SNB-19 CNS) was greater than 100 µM and the TGI (CCRF-CEM leukemia) was 16.2 µM. For the same compound, the TGI (SW-620 colon) was 10.4 µM, the TGI (A549 NSCLC) was 4.19 µM and the TGI (RXF 393 renal) was 32.8 µM. The TGI (HOP-62 NSCLC) was 64.7 µM, the TGI (COLO 205 colon) was 11.3 µM and the TGI (SNB-75 CNS) was 46.8 µM. For the same compound, the TGI (K-562 leukemia) was 0.828 µM, the TGI (A498 renal) was 37.9 µM and the TGI (KM20L2 colon) was 60.5 nM. The TGI (HT29 colon) was 27.9 µM, the TGI (SNB-78 CNS) was 26.8 µM and the TGI (OVCAR-8 ovarian) was 27.5 µM. The TGI (MOLT-4 leukemia) was 17.3 µM, the TGI (DLD-1 colon) was 11.6 µM and the TGI (IGROV1 ovarian) was 17.9 µM. The TGI (HCT-116 colon) was 15.7 µM, the TGI (LXFL 529 NSCLC) was 0.446 µM and the TGI (SK-MEL-28 melanoma) was 10.8 µM. The TGI (786-0 renal) was 14.8 µM, the TGI (DMS 114 small cell lung) was 21.8 µM and the TGI (LOX IMVI melanoma) was 15.7 µM. It also gave a TGI (HL-60(TB) leukemia) of 7.49 µM, a TGI (OVCAR-3 ovarian) of 14 µM and a TGI (UACC-257 melanoma) of 23.4 µM. It also gave a TGI (UO-31 renal) of 0.843 µM, a TGI (KM12 colon) of 26.6 µM and a TGI (HOP-18 NSCLC) of 73.1 µM. It also gave a TGI (RPMI-8226 leukemia) of 19.4 µM, a TGI (NCI-H522 lung) of 23.9 µM and a TGI (U251 CNS) of 13.4 µM. It also gave a TGI (SK-MEL-2 melanoma) of 31 µM, a TGI (M14 melanoma) of 20.3 µM and a TGI (SF-268 CNS) of 15.4 µM. It also gave a TGI (HCT-15 colon) of 2460 nM, a TGI (SK-MEL-5 melanoma) of 20.7 µM and a TGI (NCI-H23 lung) of 23.5 µM. The TGI (OVCAR-5 ovarian) was 2000 nM.

— PubChem BioAssay (NCI)
